Results taken from ChEMBL document CHEMBL4507319 (2021).

What was measured:
[1] = molecular target: T1, Calcium/calmodulin-dependent protein kinase type IV (Homo sapiens) (UniProt Q16566); settings: Compound concentration 1000.0 nM
T1 sequence (whole entry): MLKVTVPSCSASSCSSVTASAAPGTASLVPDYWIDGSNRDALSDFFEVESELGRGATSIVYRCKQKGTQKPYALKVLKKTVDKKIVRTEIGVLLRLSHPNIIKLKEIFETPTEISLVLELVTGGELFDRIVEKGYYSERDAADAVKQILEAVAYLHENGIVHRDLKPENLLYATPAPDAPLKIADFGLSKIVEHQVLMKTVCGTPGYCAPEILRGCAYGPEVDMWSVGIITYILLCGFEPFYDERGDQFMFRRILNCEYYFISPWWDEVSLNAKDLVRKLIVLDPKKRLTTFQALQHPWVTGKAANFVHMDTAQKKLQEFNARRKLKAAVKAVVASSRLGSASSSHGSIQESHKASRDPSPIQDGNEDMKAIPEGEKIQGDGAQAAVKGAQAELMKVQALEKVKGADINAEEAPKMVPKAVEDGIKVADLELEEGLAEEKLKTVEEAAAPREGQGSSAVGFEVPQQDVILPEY

[2] = test system: Epidermal growth factor receptor (Homo sapiens), P00533 [G719C]; settings: Compound concentration 1000.0 nM
[3] = molecular target: Ephrin type-B receptor 6 (Homo sapiens) (UniProt O15197); settings: Compound concentration 1000.0 nM
[4] = molecular target: Receptor tyrosine-protein kinase erbB-2 (Homo sapiens) (UniProt P04626); settings: Compound concentration 1000.0 nM
[5] = molecular target: T2, Beta-adrenergic receptor kinase 1 (Homo sapiens) (UniProt P25098); settings: Compound concentration 1000.0 nM
T2 sequence (whole entry): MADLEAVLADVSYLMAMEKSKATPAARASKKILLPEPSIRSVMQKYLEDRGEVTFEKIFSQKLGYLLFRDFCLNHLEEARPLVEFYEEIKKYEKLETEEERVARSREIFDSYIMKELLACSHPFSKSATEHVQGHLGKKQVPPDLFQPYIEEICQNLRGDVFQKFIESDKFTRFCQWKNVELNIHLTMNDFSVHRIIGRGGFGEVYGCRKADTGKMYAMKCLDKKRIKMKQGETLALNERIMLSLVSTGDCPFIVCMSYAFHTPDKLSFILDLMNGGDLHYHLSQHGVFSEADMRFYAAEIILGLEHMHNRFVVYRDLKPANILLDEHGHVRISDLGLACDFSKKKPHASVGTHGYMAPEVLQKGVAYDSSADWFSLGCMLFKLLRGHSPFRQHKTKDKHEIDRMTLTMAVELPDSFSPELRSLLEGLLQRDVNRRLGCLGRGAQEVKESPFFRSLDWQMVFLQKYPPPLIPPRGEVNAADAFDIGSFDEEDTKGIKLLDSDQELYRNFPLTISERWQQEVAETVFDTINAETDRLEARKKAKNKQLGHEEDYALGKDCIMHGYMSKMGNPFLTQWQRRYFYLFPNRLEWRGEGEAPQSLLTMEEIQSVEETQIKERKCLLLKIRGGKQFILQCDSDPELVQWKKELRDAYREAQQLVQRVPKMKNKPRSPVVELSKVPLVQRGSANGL

[6] = molecular target: T3, Rhodopsin kinase GRK7 (Homo sapiens) (UniProt Q8WTQ7); settings: Compound concentration 1000.0 nM
T3 sequence (whole entry): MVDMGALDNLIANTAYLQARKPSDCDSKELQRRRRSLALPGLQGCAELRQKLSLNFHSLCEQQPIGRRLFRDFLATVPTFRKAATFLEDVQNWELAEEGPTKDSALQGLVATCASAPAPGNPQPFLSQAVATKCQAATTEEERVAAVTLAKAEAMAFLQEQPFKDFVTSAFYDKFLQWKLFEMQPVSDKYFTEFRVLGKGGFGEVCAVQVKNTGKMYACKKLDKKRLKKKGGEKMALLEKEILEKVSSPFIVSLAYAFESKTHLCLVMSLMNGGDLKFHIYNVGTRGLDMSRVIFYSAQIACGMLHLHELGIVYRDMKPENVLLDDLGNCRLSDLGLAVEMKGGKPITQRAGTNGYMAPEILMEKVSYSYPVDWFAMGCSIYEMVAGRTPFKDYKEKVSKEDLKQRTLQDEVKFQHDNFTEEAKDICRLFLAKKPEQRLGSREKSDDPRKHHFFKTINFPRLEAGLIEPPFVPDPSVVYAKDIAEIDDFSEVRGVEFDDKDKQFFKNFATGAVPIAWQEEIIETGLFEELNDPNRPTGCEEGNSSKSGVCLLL

[7] = molecular target: Serine/threonine-protein kinase LATS2 (Homo sapiens) (UniProt Q9NRM7); settings: Compound concentration 1000.0 nM
[8] = molecular target: Leucine-rich repeat serine/threonine-protein kinase 2 (Homo sapiens) (UniProt Q5S007); settings: Compound concentration 1000.0 nM
[9] = molecular target: T4, Serine/threonine-protein kinase 3 (Homo sapiens) (UniProt Q13188); settings: Compound concentration 1000.0 nM
T4 sequence (whole entry): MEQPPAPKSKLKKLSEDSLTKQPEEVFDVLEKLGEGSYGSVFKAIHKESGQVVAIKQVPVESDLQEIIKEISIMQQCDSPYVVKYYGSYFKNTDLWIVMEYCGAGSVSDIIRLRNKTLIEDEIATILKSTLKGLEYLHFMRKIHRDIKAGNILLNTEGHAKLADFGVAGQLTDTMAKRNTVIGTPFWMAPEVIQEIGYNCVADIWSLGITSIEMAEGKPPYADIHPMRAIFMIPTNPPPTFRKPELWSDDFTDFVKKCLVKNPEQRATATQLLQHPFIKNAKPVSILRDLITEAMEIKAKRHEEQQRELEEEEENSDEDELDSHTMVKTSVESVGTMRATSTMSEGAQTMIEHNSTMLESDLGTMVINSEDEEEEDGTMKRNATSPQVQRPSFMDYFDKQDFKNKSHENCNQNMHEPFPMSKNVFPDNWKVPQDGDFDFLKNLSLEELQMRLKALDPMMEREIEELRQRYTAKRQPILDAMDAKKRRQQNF

[10] = molecular target: Serine/threonine-protein kinase PAK 4 (Homo sapiens) (UniProt O96013); settings: Compound concentration 1000.0 nM
[11] = molecular target: Serine/threonine-protein kinase PLK2 (Homo sapiens) (UniProt Q9NYY3); settings: Compound concentration 1000.0 nM
[12] = molecular target: Serine/threonine-protein kinase TNNI3K (Homo sapiens) (UniProt Q59H18); settings: Compound concentration 1000.0 nM
[13] = molecular target: Wee1-like protein kinase (Homo sapiens) (UniProt P30291); settings: Compound concentration 1000.0 nM
[14] = molecular target: Serine/threonine-protein kinase WNK3 (Homo sapiens) (UniProt Q9BYP7); settings: Compound concentration 1000.0 nM
[15] = molecular target: Alpha-1A adrenergic receptor (Homo sapiens) (UniProt P35348); settings: Compound concentration 10.0 uM
Alpha-1A adrenergic receptor (Homo sapiens), sequence (P35348 whole entry): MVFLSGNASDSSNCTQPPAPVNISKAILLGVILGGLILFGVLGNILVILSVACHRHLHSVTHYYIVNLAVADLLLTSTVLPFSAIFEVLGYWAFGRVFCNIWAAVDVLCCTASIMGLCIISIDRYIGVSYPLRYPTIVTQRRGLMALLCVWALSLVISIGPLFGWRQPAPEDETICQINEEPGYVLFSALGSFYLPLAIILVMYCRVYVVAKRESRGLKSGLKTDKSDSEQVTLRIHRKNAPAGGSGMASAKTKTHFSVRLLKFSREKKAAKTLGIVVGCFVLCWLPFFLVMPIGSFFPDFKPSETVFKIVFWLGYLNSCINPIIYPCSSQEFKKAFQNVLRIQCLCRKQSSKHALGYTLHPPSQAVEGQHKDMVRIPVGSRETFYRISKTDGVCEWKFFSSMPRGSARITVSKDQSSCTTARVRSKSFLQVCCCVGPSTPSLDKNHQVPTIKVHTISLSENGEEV

Receptor tyrosine-protein kinase erbB-2 (Homo sapiens), sequence (P04626 whole entry): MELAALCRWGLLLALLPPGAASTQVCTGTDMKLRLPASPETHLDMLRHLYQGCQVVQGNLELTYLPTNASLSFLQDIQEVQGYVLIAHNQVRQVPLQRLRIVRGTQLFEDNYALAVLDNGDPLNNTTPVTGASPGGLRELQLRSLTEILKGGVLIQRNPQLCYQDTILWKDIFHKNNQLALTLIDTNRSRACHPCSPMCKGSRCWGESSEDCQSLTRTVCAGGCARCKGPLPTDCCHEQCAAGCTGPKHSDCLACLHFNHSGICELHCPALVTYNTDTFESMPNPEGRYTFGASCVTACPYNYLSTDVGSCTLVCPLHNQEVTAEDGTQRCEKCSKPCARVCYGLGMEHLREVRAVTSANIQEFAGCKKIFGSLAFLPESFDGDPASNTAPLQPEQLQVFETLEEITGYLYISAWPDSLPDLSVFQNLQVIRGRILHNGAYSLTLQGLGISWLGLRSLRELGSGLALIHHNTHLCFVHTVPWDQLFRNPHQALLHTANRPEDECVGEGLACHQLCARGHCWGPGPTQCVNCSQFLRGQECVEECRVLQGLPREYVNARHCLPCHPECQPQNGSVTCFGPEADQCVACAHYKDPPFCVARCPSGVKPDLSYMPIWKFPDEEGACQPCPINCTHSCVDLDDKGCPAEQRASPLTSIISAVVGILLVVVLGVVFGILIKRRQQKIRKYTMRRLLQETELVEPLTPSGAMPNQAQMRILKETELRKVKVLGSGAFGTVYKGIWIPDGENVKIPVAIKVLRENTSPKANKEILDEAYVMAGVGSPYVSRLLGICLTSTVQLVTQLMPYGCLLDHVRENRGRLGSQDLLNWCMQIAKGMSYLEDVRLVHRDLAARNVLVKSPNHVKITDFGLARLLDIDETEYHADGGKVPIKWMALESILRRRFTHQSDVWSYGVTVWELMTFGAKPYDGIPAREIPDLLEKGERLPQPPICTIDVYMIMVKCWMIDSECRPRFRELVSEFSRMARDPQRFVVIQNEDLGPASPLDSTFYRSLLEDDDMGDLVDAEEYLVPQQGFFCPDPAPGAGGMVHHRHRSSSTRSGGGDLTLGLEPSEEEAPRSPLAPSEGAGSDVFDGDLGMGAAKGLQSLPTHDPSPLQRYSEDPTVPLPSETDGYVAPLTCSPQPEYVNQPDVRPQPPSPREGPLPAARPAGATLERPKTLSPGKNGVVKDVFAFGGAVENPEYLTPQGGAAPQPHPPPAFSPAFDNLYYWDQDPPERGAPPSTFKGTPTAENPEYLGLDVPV
Serine/threonine-protein kinase PLK2 (Homo sapiens), sequence (Q9NYY3 whole entry, looked up): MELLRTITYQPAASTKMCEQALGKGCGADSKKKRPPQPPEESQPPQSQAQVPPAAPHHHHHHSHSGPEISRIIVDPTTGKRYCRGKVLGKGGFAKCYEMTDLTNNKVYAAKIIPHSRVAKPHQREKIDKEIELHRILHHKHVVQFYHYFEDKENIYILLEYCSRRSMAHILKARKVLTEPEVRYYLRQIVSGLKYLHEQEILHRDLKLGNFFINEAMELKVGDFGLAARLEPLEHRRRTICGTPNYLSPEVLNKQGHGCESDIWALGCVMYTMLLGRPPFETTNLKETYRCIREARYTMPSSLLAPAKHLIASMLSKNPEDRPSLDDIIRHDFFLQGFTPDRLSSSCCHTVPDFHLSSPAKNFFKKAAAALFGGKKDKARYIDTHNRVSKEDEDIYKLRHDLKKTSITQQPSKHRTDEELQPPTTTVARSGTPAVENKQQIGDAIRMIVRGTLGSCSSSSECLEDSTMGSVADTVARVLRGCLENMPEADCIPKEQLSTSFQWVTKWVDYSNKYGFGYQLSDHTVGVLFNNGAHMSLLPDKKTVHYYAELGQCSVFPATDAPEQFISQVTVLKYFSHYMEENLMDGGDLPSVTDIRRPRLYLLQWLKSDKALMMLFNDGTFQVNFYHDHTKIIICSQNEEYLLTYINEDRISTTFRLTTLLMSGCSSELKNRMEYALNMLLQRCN
Wee1-like protein kinase (Homo sapiens), sequence (P30291 whole entry, looked up): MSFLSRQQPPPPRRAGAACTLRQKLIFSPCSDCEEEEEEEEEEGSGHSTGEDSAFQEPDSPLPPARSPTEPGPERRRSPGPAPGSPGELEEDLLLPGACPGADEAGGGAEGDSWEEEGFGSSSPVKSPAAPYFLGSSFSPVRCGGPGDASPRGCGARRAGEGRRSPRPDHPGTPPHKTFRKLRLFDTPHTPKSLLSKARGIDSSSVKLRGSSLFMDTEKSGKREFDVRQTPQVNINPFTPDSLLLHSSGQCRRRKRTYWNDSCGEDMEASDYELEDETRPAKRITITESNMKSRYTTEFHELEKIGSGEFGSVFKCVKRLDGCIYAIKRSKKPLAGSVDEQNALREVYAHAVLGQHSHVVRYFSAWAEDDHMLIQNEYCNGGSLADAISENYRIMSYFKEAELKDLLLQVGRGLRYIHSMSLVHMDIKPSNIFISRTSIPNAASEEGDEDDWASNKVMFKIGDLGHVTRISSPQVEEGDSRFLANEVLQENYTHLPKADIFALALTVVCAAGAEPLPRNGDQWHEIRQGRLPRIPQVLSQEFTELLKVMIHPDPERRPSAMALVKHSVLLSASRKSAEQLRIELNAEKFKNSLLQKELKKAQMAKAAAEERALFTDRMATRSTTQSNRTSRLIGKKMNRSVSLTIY
Ephrin type-B receptor 6 (Homo sapiens), sequence (O15197 whole entry): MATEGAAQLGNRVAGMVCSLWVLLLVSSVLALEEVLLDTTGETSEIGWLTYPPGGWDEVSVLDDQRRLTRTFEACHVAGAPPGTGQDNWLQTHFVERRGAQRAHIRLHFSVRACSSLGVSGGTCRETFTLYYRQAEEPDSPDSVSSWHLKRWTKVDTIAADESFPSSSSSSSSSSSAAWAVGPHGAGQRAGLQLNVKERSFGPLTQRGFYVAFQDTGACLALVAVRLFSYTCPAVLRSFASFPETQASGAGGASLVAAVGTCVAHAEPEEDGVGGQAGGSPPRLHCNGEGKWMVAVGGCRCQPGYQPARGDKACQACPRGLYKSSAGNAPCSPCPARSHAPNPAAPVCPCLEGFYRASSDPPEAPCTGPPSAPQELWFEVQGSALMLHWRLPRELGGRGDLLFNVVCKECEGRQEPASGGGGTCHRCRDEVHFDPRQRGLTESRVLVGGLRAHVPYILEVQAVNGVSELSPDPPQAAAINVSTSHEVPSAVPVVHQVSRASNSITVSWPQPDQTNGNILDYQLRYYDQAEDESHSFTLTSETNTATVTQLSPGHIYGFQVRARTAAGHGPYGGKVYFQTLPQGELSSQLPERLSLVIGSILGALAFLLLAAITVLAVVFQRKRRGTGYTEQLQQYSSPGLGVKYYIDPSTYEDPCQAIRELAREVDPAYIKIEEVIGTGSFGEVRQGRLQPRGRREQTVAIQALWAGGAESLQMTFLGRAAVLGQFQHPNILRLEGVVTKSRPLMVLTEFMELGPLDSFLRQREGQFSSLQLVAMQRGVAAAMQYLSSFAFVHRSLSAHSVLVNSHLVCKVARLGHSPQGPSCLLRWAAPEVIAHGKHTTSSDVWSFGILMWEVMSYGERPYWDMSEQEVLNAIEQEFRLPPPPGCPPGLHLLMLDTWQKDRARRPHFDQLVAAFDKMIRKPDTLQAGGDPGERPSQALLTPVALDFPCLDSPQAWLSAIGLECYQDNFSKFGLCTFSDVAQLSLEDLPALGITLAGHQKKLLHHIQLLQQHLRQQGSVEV
Serine/threonine-protein kinase TNNI3K (Homo sapiens), sequence (Q59H18 whole entry): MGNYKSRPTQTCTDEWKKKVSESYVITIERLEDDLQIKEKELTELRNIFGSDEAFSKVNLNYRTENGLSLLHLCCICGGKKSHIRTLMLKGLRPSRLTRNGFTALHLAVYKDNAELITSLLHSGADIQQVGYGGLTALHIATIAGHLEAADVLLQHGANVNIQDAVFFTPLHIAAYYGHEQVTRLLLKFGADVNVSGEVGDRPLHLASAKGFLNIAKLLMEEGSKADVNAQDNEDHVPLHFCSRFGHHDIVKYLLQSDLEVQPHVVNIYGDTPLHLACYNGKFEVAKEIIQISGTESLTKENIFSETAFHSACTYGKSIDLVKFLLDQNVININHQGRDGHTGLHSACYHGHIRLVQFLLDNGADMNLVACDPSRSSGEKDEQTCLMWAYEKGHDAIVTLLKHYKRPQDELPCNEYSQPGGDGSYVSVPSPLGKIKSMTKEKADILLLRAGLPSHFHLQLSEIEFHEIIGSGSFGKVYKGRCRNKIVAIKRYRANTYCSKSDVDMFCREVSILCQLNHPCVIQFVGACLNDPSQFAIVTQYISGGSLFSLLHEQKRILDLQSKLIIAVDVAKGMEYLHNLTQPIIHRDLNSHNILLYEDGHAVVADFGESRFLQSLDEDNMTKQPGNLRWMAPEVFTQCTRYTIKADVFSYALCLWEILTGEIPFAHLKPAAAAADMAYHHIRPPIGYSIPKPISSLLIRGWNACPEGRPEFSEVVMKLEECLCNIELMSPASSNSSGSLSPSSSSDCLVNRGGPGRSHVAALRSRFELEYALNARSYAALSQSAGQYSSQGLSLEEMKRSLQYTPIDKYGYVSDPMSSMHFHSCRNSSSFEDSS

CCc1ccccc1C(=O)Nc1n[nH]c2c(C)c(F)c(C3C(C#N)=C(C)N(C)C(C)=C3C#N)cc12 [BAY-3827]
inactive: residual activity [1] 56% | residual activity [2] 55% | residual activity [3] 100% | residual activity [4] 71% | residual activity [5] 100% | residual activity [6] 54% | residual activity [7] 67% | residual activity [8] 100% | residual activity [9] 80% | residual activity [10] 100% | residual activity [11] 97% | residual activity [12] 87% | residual activity [13] 100% | residual activity [14] 90% | inhibition [15] 6.85%

CC1=C(C#N)C(c2ccc3c(c2)c(NC(=O)c2ccccc2C)nn3C)C(C#N)=C(C)N1 [BAY-974]
inactive: residual activity [1] 70% | residual activity [2] 83% | residual activity [3] 81% | residual activity [4] 86% | residual activity [5] 91% | residual activity [6] 70% | residual activity [7] 100% | residual activity [8] 88% | residual activity [9] 100% | residual activity [10] 100% | residual activity [11] 74% | residual activity [12] 96% | residual activity [13] 100% | residual activity [14] 82% | inhibition [15] 1.96%
